“Also recorded” adds a separate entry of the source.
How the values were obtained:
[1] = tested on: Ki67; assay: Ki67 immunohistochemistry of tumor samples; type: in vivo, human; details: cycle 3 day 1 (N = 12), all dose levels; baseline 29.2% (N = 18); P = 0.041
Description: All immunohistochemistry analyses from tumor samples were performed at ICON Central Laboratories (Farmingdale, NY, USA) using the Ventana® BenchMark ULTRA™ automated staining instrument (Oro Valley, AZ, USA). Positive- and negative-control tissue and negative reagent controls were run for each marker, as well as low-ER controls for each run. Estrogen receptor levels were estimated as the number of positive tumor nuclei divided by the total number of tumor nuclei, expressed as a percentage for each receptor type. Evaluation of Ki67 was performed in accordance with Ki67 Working Group recommendations: 1) only nuclear staining was assessed as positive; 2) in cases of tumor heterogeneity (hot spots), 2 counts were performed and the average was reported; and 3) lymphocyte-rich areas were avoided when possible. Presence of activating ESR1 mutations (amino acid regions 370–381, 460–473, and 529–538) and their mutant allele fractions (MAFs) were determined in cell-free DNA (cfDNA), collected at baseline and at 8 weeks on treatment using the SafeSEQ Breast Cancer Panel (Sysmex Inostics, Baltimore, MD, USA).
In patients who underwent biomarker testing, samples collected on cycle 3 day 1 of treatment across all dose levels were compared to baseline samples to assess changes during treatment. […]

[2] = Dose escalation (phase 1a): dose-limiting toxicity, MTD, RP2D; type: in vivo; details: once-daily oral doses of 30 to 300 mg/day
Description: Phase 1 of the study comprised a dose-escalation phase (1a) to identify the MTD using a rolling 6 patient dose-escalation design with 7 dose levels. Two doses of palazestrant (60 mg/day and 120 mg/day) were selected for the dose-expansion phase (1b) to further characterize the safety, PK, and preliminary antitumor activity of treatment and to establish the RP2D. Phase 2 further explored the safety and antitumor activity of palazestrant at the RP2D (120 mg/day) in patients with measurable disease (primary cohort), nonmeasurable evaluable disease (exploratory cohort), and central nervous system (CNS) metastases (exploratory cohort). […]
All DLT analyses (phase 1a) were performed in patients enrolled in the study during cycle 1 and who either received 75% of the planned palazestrant doses or experienced a DLT during cycle 1. […] All safety analyses were performed and PFS assessed in patients who received at least 1 dose of palazestrant. Clinical response (CR or PR) was assessed in patients who received at least 1 cycle of palazestrant, had measurable disease at baseline, and had at least 1 postbaseline tumor assessment. CBR was assessed in patients who received at least 1 cycle of palazestrant, had at least 1 postbaseline tumor assessment, and started their first dose at least 24 weeks before data cutoff. […]

In the case of `CCCN1CC(Oc2ccc([C@@H]3c4[nH]c5ccccc5c4C[C@@H](C)N3CC(C)(C)F)cc2)C1` [palazestrant, Palazestrant], the “Ki67 levels on treatment” value [1] is reported as 20.4% and the “maximum tolerated dose (MTD)” value [2] is reported as “not reached; also recorded: no MTD was identified”.
